The CheMixHub ionic liquid set

Experiment: xn = mol fraction of the nth substance listed
Conditions: for electrical conductivity: x1 = 1

CCCC[n+]1ccn(C)c1.N#C[N-]C#N + F[B-](F)(F)F.[Li+]
101 kPa
Conditions	electrical conductivity [S/m]
288.15 K	0.596
298.15 K	0.925
333.15 K	2.77

CCCO + C[C@H](N)C(=O)[O-].C[N+](C)(C)CCO
100 kPa, x2 = 0
Conditions	viscosity [mPa·s]
288.12 K	2.19
289.34 K	2.13
290.54 K	2.07
291.73 K	2
292.91 K	1.95
294.09 K	1.89
295.27 K	1.84
296.45 K	1.78
297.63 K	1.73
298.8 K	1.68
299.98 K	1.63
301.16 K	1.58
302.33 K	1.52
303.51 K	1.48
304.68 K	1.43
305.86 K	1.38
307.04 K	1.34
308.21 K	1.29

CCCC[n+]1ccn(C)c1.N#C[S-] + CN1CCCC1=O
viscosity [mPa·s], 101 kPa
Conditions	x1 = 0.0009705	x1 = 0.001495	x1 = 0.002117	x1 = 0.002433	x1 = 0.003004	x1 = 0.003507	x1 = 0.004097	x1 = 0.00451
288.15 K	2.139	2.145	2.153	2.158	2.163	2.166	2.172	2.178
298.15 K	1.804	1.808	1.811	1.813	1.821	1.827	1.834	1.843
308.15 K	1.563	1.575	1.582	1.586	1.593	1.604	1.616	1.623
318.15 K	1.295	1.305	1.311	1.317	1.322	1.327	1.337	1.349

CCCC[N+](C)(CCCC)CCCC.[Cl-] + OC[C@H]1O[C@@](CO)(O[C@H]2O[C@H](CO)[C@@H](O)[C@H](O)[C@H]2O)[C@@H](O)[C@@H]1O + O
viscosity [mPa·s], 101.3 kPa
Conditions	293.15 K	298.15 K	303.15 K	308.15 K	313.15 K
x2 = 0, x1 = 0.0003423	1.011	0.904	0.806	0.729	0.662
x2 = 0, x1 = 0.0007203	–	–	–	–	0.672
x2 = 0, x1 = 0.001062	1.036	0.931	0.826	0.747	0.686
x2 = 0, x1 = 0.00144	–	–	–	–	0.695
x2 = 0.0003599, x1 = 0.0003421	1.027	0.917	0.817	0.737	0.668
x2 = 0.0003616, x1 = 0.00072	1.041	0.928	0.824	0.746	0.68
x2 = 0.0003631, x1 = 0.001062	1.057	0.948	0.839	0.758	0.695
x2 = 0.0003647, x1 = 0.001439	1.069	0.962	0.857	0.773	0.706
x2 = 0.0007214, x1 = 0.000342	1.052	0.937	0.83	0.747	0.677
x2 = 0.0007247, x1 = 0.0007198	1.069	0.948	0.839	0.759	0.692
x2 = 0.0007277, x1 = 0.001061	1.084	0.968	0.855	0.773	0.709
x2 = 0.000731, x1 = 0.001438	1.096	0.984	0.871	0.786	0.718
x2 = 0.001083, x1 = 0.0003419	1.071	0.952	0.845	0.761	0.689
x2 = 0.001088, x1 = 0.0007195	1.088	0.965	0.854	0.772	0.701
x2 = 0.001092, x1 = 0.001061	1.105	0.994	0.872	0.785	0.718
x2 = 0.001097, x1 = 0.001438	1.118	1.007	0.89	0.8	0.729
x2 = 0.001444, x1 = 0.0003418	1.093	0.971	0.86	0.774	0.701
x2 = 0.00145, x1 = 0.0007192	1.11	0.984	0.87	0.786	0.712
x2 = 0.001456, x1 = 0.001061	1.126	1.009	0.889	0.799	0.73
x2 = 0.001463, x1 = 0.001437	1.141	1.025	0.908	0.816	0.741
x2 = 0.001804, x1 = 0.0003416	1.115	0.987	0.875	0.788	0.713
x2 = 0.001813, x1 = 0.000719	1.134	1.001	0.885	0.798	0.726
x2 = 0.00182, x1 = 0.00106	1.153	1.025	0.905	0.814	0.744
x2 = 0.001828, x1 = 0.001437	1.166	1.042	0.925	0.829	0.76
x2 = 0.002163, x1 = 0.0003415	1.137	1.006	0.89	0.802	0.725
x2 = 0.002173, x1 = 0.0007187	1.155	1.02	0.901	0.811	0.734
x2 = 0.002176, x1 = 0.00106	1.171	1.044	0.922	0.828	0.754
x2 = 0.002192, x1 = 0.001436	1.182	1.059	0.941	0.841	0.762
x2 = 0.002532, x1 = 0.0003414	1.153	1.027	0.904	0.806	0.734
x2 = 0.002546, x1 = 0.0007185	1.176	1.038	0.916	0.822	0.754
x2 = 0.00256, x1 = 0.001436	1.203	1.075	0.957	0.859	0.775
x2 = 0.002561, x1 = 0.001059	1.187	1.058	0.934	0.842	0.766
